These results are taken from patent US10758534B2 (Vertex Pharmaceuticals Incorporated, priority 2014, dated 2020).

T1 sequence (P13569 with tags, fused parts or gaps DEL508-508): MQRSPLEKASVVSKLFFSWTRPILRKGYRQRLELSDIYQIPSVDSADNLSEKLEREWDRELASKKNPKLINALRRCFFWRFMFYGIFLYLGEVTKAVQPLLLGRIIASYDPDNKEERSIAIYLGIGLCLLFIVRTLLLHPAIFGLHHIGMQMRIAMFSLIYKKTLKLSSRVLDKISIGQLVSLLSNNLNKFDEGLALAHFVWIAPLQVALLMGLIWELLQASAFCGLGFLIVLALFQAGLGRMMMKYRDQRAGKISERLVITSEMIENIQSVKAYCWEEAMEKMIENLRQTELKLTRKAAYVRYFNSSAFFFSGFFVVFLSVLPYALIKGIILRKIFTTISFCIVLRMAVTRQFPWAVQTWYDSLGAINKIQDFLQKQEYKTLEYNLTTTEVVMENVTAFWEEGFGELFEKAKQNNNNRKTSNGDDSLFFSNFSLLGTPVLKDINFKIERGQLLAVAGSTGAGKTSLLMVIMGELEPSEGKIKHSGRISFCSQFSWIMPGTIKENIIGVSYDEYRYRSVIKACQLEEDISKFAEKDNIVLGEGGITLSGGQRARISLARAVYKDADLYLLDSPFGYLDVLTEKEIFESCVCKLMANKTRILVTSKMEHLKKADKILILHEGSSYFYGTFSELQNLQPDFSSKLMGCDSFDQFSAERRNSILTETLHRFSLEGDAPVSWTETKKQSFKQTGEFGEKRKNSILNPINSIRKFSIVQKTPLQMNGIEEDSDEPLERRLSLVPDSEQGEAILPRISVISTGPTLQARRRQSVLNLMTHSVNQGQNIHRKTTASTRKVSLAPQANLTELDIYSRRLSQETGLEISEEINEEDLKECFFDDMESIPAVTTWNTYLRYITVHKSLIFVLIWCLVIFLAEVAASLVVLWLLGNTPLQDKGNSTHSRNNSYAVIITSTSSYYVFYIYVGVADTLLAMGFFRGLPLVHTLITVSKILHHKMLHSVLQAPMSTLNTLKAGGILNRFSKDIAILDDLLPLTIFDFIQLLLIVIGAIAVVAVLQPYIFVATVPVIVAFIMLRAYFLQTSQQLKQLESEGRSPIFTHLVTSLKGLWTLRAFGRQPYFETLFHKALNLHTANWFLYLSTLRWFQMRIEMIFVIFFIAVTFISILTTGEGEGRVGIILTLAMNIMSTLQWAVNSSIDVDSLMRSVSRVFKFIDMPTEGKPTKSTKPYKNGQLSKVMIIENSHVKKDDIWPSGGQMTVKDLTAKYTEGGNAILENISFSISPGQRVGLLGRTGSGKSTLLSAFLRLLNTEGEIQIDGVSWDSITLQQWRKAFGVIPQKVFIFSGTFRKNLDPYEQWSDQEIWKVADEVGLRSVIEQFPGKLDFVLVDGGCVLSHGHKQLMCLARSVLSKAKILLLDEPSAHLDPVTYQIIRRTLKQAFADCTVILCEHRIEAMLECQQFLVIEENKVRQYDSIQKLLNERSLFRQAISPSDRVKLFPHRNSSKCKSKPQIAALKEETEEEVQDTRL

The first assay has as its target T1, F508del (Homo sapiens, UniProt P13569, DEL508-508).
T1 construct: expressed in transfected cells
Kind of assay: Protocol 2: FRET membrane potential optical assay (VIPR), identification of correction compounds. The conditions noted are these: F508del CFTR modulator activity; compounds of Table 1; read-out: EC30. In kind it is cell-based. The essentials:
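Single-addition HTS format: F508del-expressing NIH3T3 cells pre-incubated 16 hrs at 37° C. ± compound, with 27° C. culture as positive control. Channel activation by forskolin 10 μM and genistein 20 μM upon switch to gluconate bath, pH 7.4; read-out is FRET-based depolarization signal.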
The EC30 is the concentration at which the effect reaches the 30% level. Take `C[C@@H]1CN(c2nc(-c3cc(F)cc(F)c3)ccc2C(=O)NS(=O)(=O)c2cccnc2N)C(C)(C)C1` [Compound 2272, N-[(2-amino-3-pyridyl)sulfonyl]-6-(3,5-difluorophenyl)-2-[(4S)-2,2,4-trimethylpyrrolidin-1-yl]pyridine-3-carboxamide]: the EC30 is below 3 µM.

With `COc1ccc(-c2ccc(C(=O)NS(=O)(=O)c3cccnc3N)c(N3C[C@@H](C)CC3(C)C)n2)c(C)c1C` [Compound 2450, N-[(2-amino-3-pyridyl)sulfonyl]-6-(4-methoxy-2,3-dimethyl-phenyl)-2-[(4S)-2,2,4-trimethylpyrrolidin-1-yl]pyridine-3-carboxamide], the EC30 was below 3 µM.

As for `COC(=O)c1ccc(Oc2cccc(S(=O)(=O)NC(=O)c3cccnc3N3CC(C)CC3(C)C)n2)cc1` (stereo not drawn) [Compound 2728], the EC30 was below 3 µM.

`CC(C)CC/C=C/c1cnc(N2CC(C)CC2(C)C)c(C(=O)NS(=O)(=O)c2cccc(N)n2)c1` (stereo not drawn) [Compound 2647, N-[(6-amino-2-pyridyl)sulfonyl]-5-[(E)-5-methylhex-1-enyl]-2-(2,2,4-trimethylpyrrolidin-1-yl)pyridine-3-carboxamide]: the EC30 is below 3 µM.

Turning to `Cc1cc(-c2ccc(C(=O)NS(=O)(=O)c3cccc(N)n3)c(N3C[C@@H](C)CC3(C)C)n2)cnc1N(C)CC(C)C` [Compound 2279, N-[(6-amino-2-pyridyl)sulfonyl]-6-[6-[isobutyl(methyl)amino]-5-methyl-3-pyridyl]-2-[(4S)-2,2,4-trimethylpyrrolidin-1-yl]pyridine-3-carboxamide], the EC30 is below 3 µM.

Take `CC1CN(c2ncc(C3=CCN(C(=O)OC(C)(C)C)CC3)cc2C(=O)NS(=O)(=O)c2cccc(N)n2)C(C)(C)C1` (stereo not drawn) [Compound 2129, tert-butyl 4-[5-[(6-amino-2-pyridyl)sulfonylcarbamoyl]-6-(2,2,4-trimethylpyrrolidin-1-yl)-3-pyridyl]-3,6-dihydro-2H-pyridine-1-carboxylate]: the EC30 is below 3 µM.

Still in this assay, the particulars now being: Table 3; compounds of Table 1 as modulators of CFTR activity; protocol not stated.
`COC1(C)CCN(c2nc(-c3cc(F)cc(OCC(C)C)c3)ccc2C(=O)NS(=O)(=O)c2ccn[nH]2)CC1` [Compound 774, 6-(3-fluoro-5-isobutoxy-phenyl)-2-(4-methoxy-4-methyl-1-piperidyl)-N-(1H-pyrazol-5-ylsulfonyl)pyridine-3-carboxamide]: the EC30 entry is given as “+++ (“+++” means <3 uM)”.

For the molecule `COc1cccc(-c2ccc(C(=O)NS(=O)(=O)c3cccc(N)n3)c(Oc3c(C)cc(C)cc3C)n2)c1` [Compound 413, N-[(6-amino-2-pyridyl)sulfonyl]-6-(3-methoxyphenyl)-2-(2,4,6-trimethylphenoxy)pyridine-3-carboxamide], the EC30 result was “+++ (“+++” means <3 uM)”.

Take `Cc1cc(C)c(CN2Cc3ccccc3C2(C)C(=O)NS(=O)(=O)c2ncccc2O)c(C)c1` (stereo not drawn) [Compound 377, N-[(3-hydroxy-2-pyridyl)sulfonyl]-1-methyl-2-[(2,4,6-trimethylphenyl)methyl]isoindoline-1-carboxamide]: the EC30 result is given as “+++ (“+++” means <3 uM)”.

`CC(C)COc1ccc(F)c(-c2ccc(C(=O)NS(=O)(=O)c3ccn[nH]3)c(N3[C@H](C)CC[C@@H]3C)n2)c1` [Compound 681, 2-[(2S,5R)-2,5-dimethylpyrrolidin-1-yl]-6-(2-fluoro-5-isobutoxy-phenyl)-N-(1H-pyrazol-5-ylsulfonyl)pyridine-3-carboxamide]: the 30% effect concentration (EC30) entry is “+++ (“+++” means <3 uM)”.

As to `Cn1ccc2c(Cn3nc(C(C)(C)C)cc3C(=O)NS(=O)(=O)c3ccccc3)cccc21` [Compound 245, N-(benzenesulfonyl)-5-tert-butyl-2-[(1-methylindol-4-yl)methyl]pyrazole-3-carboxamide], the EC30 result was “++ (“++” means between 3 uM and 10 uM)”.

On to `CC(C)Oc1ccc(-c2ccc(C(=O)NS(=O)(=O)c3cccc(N)n3)c(N3CCCC4(CC4)C3)n2)cn1` [Compound 703, N-[(6-amino-2-pyridyl)sulfonyl]-2-(7-azaspiro[2.5]octan-7-yl)-6-(6-isopropoxy-3-pyridyl)pyridine-3-carboxamide], for which the EC30 entry is on record as “+++ (“+++” means <3 uM)”.
